Source: ChEMBL document CHEMBL5715260, “Selectivity Literature for EUbOPEN Chemogenomic Library” (2024)
One block for each compound: values may come before it.

Columns and labels:
[1] = target: T1, Oxysterols receptor LXR-beta (Homo sapiens) (UniProt P55055); assay: Selectivity interaction (Reporter gene assay) EUB0001168a NR1H2; set-up: recommended concentration 1 uM; settings: screened at recom. conc., Selectivity number of off-targets 1.0, Selectivity number of targets 19.0, Source Knowledge inhouse
T1 sequence (whole entry): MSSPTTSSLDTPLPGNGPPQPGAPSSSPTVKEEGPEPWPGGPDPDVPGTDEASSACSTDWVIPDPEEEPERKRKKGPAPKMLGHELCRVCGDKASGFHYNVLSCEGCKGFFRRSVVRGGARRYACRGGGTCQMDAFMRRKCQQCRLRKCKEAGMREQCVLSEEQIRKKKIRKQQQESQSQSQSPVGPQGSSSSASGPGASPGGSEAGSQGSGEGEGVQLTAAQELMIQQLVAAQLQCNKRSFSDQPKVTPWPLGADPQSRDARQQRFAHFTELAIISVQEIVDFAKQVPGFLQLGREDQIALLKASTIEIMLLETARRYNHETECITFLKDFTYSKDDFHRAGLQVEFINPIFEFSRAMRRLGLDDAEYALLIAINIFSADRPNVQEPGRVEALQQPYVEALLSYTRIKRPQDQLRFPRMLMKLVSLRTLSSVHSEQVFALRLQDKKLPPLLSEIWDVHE

[2] = target: T2, Hepatocyte nuclear factor 4-alpha (Homo sapiens) (UniProt P41235); assay: Selectivity interaction (Reporter gene assay) EUB0001168a HNF4A; set-up: recommended concentration 1 uM
T2 sequence (whole entry): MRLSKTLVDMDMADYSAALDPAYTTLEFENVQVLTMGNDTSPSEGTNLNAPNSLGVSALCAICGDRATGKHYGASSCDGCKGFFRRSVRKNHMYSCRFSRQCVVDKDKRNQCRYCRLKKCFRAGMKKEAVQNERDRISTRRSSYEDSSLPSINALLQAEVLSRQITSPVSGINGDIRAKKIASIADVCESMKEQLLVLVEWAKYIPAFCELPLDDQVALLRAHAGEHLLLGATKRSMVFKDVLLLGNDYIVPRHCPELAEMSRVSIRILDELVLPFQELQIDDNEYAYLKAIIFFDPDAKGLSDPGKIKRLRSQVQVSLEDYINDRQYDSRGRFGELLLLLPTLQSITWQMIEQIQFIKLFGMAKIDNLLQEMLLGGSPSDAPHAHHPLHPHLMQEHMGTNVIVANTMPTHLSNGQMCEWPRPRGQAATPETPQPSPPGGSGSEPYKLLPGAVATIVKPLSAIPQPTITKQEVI

[3] = target: T3, Nuclear receptor subfamily 2 group C member 1 (Homo sapiens) (UniProt P13056); assay: Selectivity interaction (Reporter gene assay) EUB0001168a NR2C1; set-up: recommended concentration 1 uM
T3 sequence (whole entry): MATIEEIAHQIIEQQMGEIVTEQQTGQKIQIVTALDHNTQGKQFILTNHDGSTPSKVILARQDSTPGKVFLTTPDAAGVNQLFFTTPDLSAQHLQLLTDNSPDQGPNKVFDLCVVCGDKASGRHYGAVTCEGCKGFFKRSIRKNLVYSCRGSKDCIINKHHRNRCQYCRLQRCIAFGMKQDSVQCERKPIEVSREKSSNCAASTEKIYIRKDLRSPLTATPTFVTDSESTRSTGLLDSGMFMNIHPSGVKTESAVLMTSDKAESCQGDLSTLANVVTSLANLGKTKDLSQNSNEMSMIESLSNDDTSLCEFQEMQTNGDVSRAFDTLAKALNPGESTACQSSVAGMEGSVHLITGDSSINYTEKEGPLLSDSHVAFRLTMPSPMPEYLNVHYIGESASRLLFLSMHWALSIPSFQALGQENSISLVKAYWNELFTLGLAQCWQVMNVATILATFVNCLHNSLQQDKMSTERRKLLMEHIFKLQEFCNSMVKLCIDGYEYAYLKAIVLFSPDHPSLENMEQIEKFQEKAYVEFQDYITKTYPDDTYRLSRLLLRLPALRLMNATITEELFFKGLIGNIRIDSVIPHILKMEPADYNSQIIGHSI

[4] = target: Nuclear receptor subfamily 2 group E member 1 (Homo sapiens) (UniProt Q9Y466); assay: Selectivity interaction (Reporter gene assay) EUB0001168a NR2E1; set-up: recommended concentration 1 uM
[5] = target: Nuclear receptor subfamily 4immunitygroup A member 1 (Homo sapiens) (UniProt P22736); assay: Selectivity interaction (Reporter gene assay) EUB0001168a NR4A1; set-up: recommended concentration 1 uM
[6] = target: Steroidogenic factor 1 (Homo sapiens) (UniProt Q13285); assay: Selectivity interaction (Reporter gene assay) EUB0001168a NR5A1; set-up: recommended concentration 1 uM
[7] = target: T4, Alpha trans-inducing protein (Human alphaherpesvirus 1) (UniProt A0A5J6DW59); assay: Selectivity interaction (Reporter gene assay) EUB0001168a UL48; set-up: recommended concentration 1 uM
[8] = target: T5, Retinoic acid receptor RXR-alpha (Homo sapiens) (UniProt P19793); assay: Selectivity interaction (Reporter gene assay) EUB0001168a RXRA; set-up: recommended concentration 1 uM; settings: reference bexarotene 1 uM, Selectivity number of off-targets 0.0, Selectivity number of targets 1.0, Source Knowledge inhouse
T5 sequence (whole entry): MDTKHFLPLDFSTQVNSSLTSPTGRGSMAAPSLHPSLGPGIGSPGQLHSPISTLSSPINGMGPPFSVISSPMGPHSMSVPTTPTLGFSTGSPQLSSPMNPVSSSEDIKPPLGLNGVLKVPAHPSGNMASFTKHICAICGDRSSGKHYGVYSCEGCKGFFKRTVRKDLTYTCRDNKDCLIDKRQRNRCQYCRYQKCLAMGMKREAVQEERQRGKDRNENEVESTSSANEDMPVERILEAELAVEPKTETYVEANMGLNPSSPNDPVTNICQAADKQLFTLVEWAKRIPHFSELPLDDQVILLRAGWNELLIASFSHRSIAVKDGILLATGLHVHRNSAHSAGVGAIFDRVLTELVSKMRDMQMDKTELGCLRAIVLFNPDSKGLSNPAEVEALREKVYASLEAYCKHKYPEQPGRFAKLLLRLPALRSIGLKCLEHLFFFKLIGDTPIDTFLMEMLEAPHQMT

[9] = target: T2, Hepatocyte nuclear factor 4-alpha (Homo sapiens); assay: Selectivity interaction (Reporter gene assay) EUB0001160a HNF4A; set-up: recommended concentration 1 uM
[10] = target: T3, Nuclear receptor subfamily 2 group C member 1 (Homo sapiens); assay: Selectivity interaction (Reporter gene assay) EUB0001160a NR2C1; set-up: recommended concentration 1 uM
[11] = target: Nuclear receptor subfamily 2 group E member 1 (Homo sapiens) (UniProt Q9Y466); assay: Selectivity interaction (Reporter gene assay) EUB0001160a NR2E1; set-up: recommended concentration 1 uM
[12] = target: Nuclear receptor subfamily 4immunitygroup A member 1 (Homo sapiens) (UniProt P22736); assay: Selectivity interaction (Reporter gene assay) EUB0001160a NR4A1; set-up: recommended concentration 1 uM
[13] = target: Steroidogenic factor 1 (Homo sapiens) (UniProt Q13285); assay: Selectivity interaction (Reporter gene assay) EUB0001160a NR5A1; set-up: recommended concentration 1 uM
[14] = target: T4, Alpha trans-inducing protein (Human alphaherpesvirus 1); assay: Selectivity interaction (Reporter gene assay) EUB0001160a UL48; set-up: recommended concentration 1 uM
[15] = target: T5, Retinoic acid receptor RXR-alpha (Homo sapiens); assay: Selectivity interaction (Reporter gene assay) EUB0001160a RXRA; set-up: recommended concentration 1 uM
[16] = target: T2, Hepatocyte nuclear factor 4-alpha (Homo sapiens); assay: Selectivity interaction (Reporter gene assay) EUB0001163a HNF4A; set-up: recommended concentration 10 uM
[17] = target: T3, Nuclear receptor subfamily 2 group C member 1 (Homo sapiens); assay: Selectivity interaction (Reporter gene assay) EUB0001163a NR2C1; set-up: recommended concentration 10 uM
[18] = target: Nuclear receptor subfamily 2 group E member 1 (Homo sapiens) (UniProt Q9Y466); assay: Selectivity interaction (Reporter gene assay) EUB0001163a NR2E1; set-up: recommended concentration 10 uM
[19] = target: Nuclear receptor subfamily 4immunitygroup A member 1 (Homo sapiens) (UniProt P22736); assay: Selectivity interaction (Reporter gene assay) EUB0001163a NR4A1; set-up: recommended concentration 10 uM
[20] = target: Steroidogenic factor 1 (Homo sapiens) (UniProt Q13285); assay: Selectivity interaction (Reporter gene assay) EUB0001163a NR5A1; set-up: recommended concentration 10 uM
[21] = target: T4, Alpha trans-inducing protein (Human alphaherpesvirus 1); assay: Selectivity interaction (Reporter gene assay) EUB0001163a UL48; set-up: recommended concentration 10 uM
[22] = target: T5, Retinoic acid receptor RXR-alpha (Homo sapiens); assay: Selectivity interaction (Reporter gene assay) EUB0001163a RXRA; set-up: recommended concentration 10 uM; settings: reference bexarotene 1 uM, Selectivity number of off-targets 0.0, Selectivity number of targets 1.0, Source Knowledge inhouse
[23] = target: T2, Hepatocyte nuclear factor 4-alpha (Homo sapiens); assay: Selectivity interaction (Reporter gene assay) EUB0001157a HNF4A; set-up: recommended concentration 10 uM
[24] = target: T3, Nuclear receptor subfamily 2 group C member 1 (Homo sapiens); assay: Selectivity interaction (Reporter gene assay) EUB0001157a NR2C1; set-up: recommended concentration 10 uM
[25] = target: Nuclear receptor subfamily 2 group E member 1 (Homo sapiens) (UniProt Q9Y466); assay: Selectivity interaction (Reporter gene assay) EUB0001157a NR2E1; set-up: recommended concentration 10 uM
[26] = target: Nuclear receptor subfamily 4immunitygroup A member 1 (Homo sapiens) (UniProt P22736); assay: Selectivity interaction (Reporter gene assay) EUB0001157a NR4A1; set-up: recommended concentration 10 uM
[27] = target: Steroidogenic factor 1 (Homo sapiens) (UniProt Q13285); assay: Selectivity interaction (Reporter gene assay) EUB0001157a NR5A1; set-up: recommended concentration 10 uM
[28] = target: T4, Alpha trans-inducing protein (Human alphaherpesvirus 1); assay: Selectivity interaction (Reporter gene assay) EUB0001157a UL48; set-up: recommended concentration 10 uM
[29] = target: T5, Retinoic acid receptor RXR-alpha (Homo sapiens); assay: Selectivity interaction (Reporter gene assay) EUB0001157a RXRA; set-up: recommended concentration 10 uM; settings: reference bexarotene 1 uM, Selectivity number of off-targets 0.0, Selectivity number of targets 1.0, Source Knowledge inhouse
[30] = target: T2, Hepatocyte nuclear factor 4-alpha (Homo sapiens); assay: Selectivity interaction (Reporter gene assay) EUB0001158a HNF4A; set-up: recommended concentration 1 uM
[31] = target: T3, Nuclear receptor subfamily 2 group C member 1 (Homo sapiens); assay: Selectivity interaction (Reporter gene assay) EUB0001158a NR2C1; set-up: recommended concentration 1 uM
[32] = target: Nuclear receptor subfamily 2 group E member 1 (Homo sapiens) (UniProt Q9Y466); assay: Selectivity interaction (Reporter gene assay) EUB0001158a NR2E1; set-up: recommended concentration 1 uM
[33] = target: Nuclear receptor subfamily 4immunitygroup A member 1 (Homo sapiens) (UniProt P22736); assay: Selectivity interaction (Reporter gene assay) EUB0001158a NR4A1; set-up: recommended concentration 1 uM
[34] = target: Steroidogenic factor 1 (Homo sapiens) (UniProt Q13285); assay: Selectivity interaction (Reporter gene assay) EUB0001158a NR5A1; set-up: recommended concentration 1 uM
[35] = target: T4, Alpha trans-inducing protein (Human alphaherpesvirus 1); assay: Selectivity interaction (Reporter gene assay) EUB0001158a UL48; set-up: recommended concentration 1 uM
[36] = target: T5, Retinoic acid receptor RXR-alpha (Homo sapiens); assay: Selectivity interaction (Reporter gene assay) EUB0001158a RXRA; set-up: recommended concentration 1 uM; settings: reference bexarotene 1 uM, Selectivity number of off-targets 0.0, Selectivity number of targets 1.0, Source Knowledge inhouse

Nuclear receptor subfamily 2 group E member 1 (Homo sapiens), sequence (Q9Y466 whole entry): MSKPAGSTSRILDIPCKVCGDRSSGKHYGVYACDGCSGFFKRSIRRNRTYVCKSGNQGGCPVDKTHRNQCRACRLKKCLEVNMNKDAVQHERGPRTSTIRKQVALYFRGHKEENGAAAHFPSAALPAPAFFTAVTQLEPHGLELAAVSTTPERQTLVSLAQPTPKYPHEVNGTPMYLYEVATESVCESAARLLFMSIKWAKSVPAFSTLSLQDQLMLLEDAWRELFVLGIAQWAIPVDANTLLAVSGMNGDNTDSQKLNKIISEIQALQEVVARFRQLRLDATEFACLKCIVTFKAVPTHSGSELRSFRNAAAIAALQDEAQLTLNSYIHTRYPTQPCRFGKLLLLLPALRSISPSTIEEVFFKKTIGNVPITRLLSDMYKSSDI
Nuclear receptor subfamily 4immunitygroup A member 1 (Homo sapiens), sequence (P22736 whole entry): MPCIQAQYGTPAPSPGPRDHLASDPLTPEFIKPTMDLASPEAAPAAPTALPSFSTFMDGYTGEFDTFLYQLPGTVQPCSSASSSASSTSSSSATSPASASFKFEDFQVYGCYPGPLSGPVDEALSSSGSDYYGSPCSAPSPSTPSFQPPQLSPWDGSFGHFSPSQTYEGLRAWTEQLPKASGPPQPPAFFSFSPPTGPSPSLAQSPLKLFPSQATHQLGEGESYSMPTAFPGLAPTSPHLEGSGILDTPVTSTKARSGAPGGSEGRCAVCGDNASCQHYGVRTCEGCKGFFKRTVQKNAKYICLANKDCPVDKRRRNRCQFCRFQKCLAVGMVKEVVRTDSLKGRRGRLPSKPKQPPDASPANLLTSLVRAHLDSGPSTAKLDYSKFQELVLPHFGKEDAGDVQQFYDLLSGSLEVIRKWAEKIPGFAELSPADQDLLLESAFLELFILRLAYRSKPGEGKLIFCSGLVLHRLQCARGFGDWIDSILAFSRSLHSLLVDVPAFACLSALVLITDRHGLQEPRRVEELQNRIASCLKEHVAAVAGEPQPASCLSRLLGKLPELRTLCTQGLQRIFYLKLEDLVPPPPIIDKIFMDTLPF
T4 sequence (A0A5J6DW59 as listed by the source): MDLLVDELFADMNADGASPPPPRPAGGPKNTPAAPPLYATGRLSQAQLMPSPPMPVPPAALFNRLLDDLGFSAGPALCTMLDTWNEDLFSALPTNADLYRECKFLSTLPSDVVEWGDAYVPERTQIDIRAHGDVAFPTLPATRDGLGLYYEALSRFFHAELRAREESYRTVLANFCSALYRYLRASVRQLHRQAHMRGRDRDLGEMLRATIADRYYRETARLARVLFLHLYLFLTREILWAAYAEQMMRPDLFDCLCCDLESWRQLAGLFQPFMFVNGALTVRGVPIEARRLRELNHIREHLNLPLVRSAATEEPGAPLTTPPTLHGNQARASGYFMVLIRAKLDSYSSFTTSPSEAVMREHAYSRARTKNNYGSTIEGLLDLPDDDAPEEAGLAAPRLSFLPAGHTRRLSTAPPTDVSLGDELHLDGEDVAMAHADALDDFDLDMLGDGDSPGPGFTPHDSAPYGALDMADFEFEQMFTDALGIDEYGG
Steroidogenic factor 1 (Homo sapiens), sequence (Q13285 whole entry): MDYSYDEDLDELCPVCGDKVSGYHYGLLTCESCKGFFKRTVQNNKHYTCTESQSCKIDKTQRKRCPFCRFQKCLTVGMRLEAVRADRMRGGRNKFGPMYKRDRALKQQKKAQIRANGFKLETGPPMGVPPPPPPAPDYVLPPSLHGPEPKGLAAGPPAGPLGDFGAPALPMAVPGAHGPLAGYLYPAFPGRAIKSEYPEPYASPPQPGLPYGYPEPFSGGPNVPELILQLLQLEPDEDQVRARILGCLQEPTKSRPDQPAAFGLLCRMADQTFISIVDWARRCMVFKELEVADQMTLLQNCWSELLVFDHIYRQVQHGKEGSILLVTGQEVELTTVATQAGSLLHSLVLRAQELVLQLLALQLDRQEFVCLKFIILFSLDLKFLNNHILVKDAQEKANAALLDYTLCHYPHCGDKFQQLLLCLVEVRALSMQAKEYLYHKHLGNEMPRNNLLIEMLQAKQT

Remaining activity [9]: 0.878
Fold activation [10]: 1.26
Fold activation [11]: 1.21
Remaining activity [12]: 0.922
Remaining activity [13]: 0.561
P-value [14]: 0.00194
Relative activation [15]: 1.19%
Structure (SMILES): OC(c1ccc(-c2ccc(CN3CCN(Cc4ccncc4)CC3)cc2)c(F)c1)(C(F)(F)F)C(F)(F)F

Remaining activity [23]: 0.822
Remaining activity [24]: 0.846
Remaining activity [25]: 0.634
Remaining activity [26]: 0.943
Remaining activity [27]: 0.818
P-value [28]: 0.00195
Relative activation [29]: 0.211%
Structure (SMILES): O=S(=O)(Nc1ccc(C(O)(C(F)(F)F)C(F)(F)F)cc1)c1cccs1

Remaining activity [30]: 0.71
Remaining activity [31]: 0.684
Remaining activity [32]: 0.58
Remaining activity [33]: 0.661
Remaining activity [34]: 0.814
P-value [35]: 3.31e-05
Relative activation [36]: 0.191%
Structure (SMILES): CC(=O)Nc1nc(C)c(S(=O)(=O)Nc2ccc(C(O)(C(F)(F)F)C(F)(F)F)cc2)s1

Continued, compound first:

Structure (SMILES): O=C(O)c1ccnc(N2CC(O)(c3ccc(OCc4c(-c5c(Cl)cccc5Cl)noc4C4CC4)cc3Cl)C2)c1
Fold activation [1]: 5.01
Fold activation [2]: 1.13
Fold activation [3]: 1.18
Fold activation [4]: 1.12
Fold activation [5]: 1.01
Fold activation [6]: 1.07
P-value [7]: 0.0011
Relative activation [8]: 0.698%

Structure (SMILES): CCOC(=O)Nc1ccc2c(c1)N(C(=O)CN(CC)CC)c1ccccc1CC2
Fold activation [16]: 1.08
Fold activation [17]: 1.37
Remaining activity [18]: 1.38
Remaining activity [19]: 1.21
Fold activation [20]: 1.16
P-value [21]: 0.011
Relative activation [22]: 0.623%
